Source: ChEMBL document CHEMBL5634150, “Design, synthesis and biological evaluation of novel dihydroquinolin-4(1H)-one derivatives as novel tubulin polymerization inhibitors” (Eur J Med Chem, 2023)
pIC50: −log10 of the molar value. Converted amounts (≈) assume the structure as drawn. The source made the active and inactive calls. No cut-off for these calls is given here.

Legend:
[1] = Toxicity in mouse assessed as effect on kidney at 20 mg/kg by H and E staining based microscopic analysis; type: organism-based; settings: in vivo
[2] = tested on: A549/TR; test: Antiproliferative activity against human A549/Taxol cells assessed as inhibition of cell growth measured after 72 hrs by MTT assay; type: functional, cell-based
[3] = Metabolic stability in mouse liver microsomes assessed as half life at 100 uM measure upto 60 mins in presence of NADPH by LC-MS/MS analysis; type: ADME, Microsome
[4] = tested on: K562; test: Antiproliferative activity against human K562 cells assessed as inhibition of cell growth measured after 72 hrs by MTT assay; type: functional, cell-based; settings: K562, 72 h
[5] = Toxicity in mouse assessed as effect on lung at 20 mg/kg by H and E staining based microscopic analysis; type: organism-based; settings: in vivo
[6] = Toxicity in mouse assessed as effect on spleen at 20 mg/kg by H and E staining based microscopic analysis; type: organism-based; settings: in vivo
[7] = tested on: Cell membrane; test: Induction of mitochondrial membrane depolarization in human K562 cells assessed as increase in green fluorescence intensity at incubated for 48 hrs by JC-1 staining based flow cytometry; type: cell membranes; settings: dose 1.5-6 nM
[8] = tested on: K562; test: Induction of cell cycle arrest in human K562 cells assessed as accumulation of cells at G2/M phase at 1.5 nM incubated overnight by PI staining based flow cytometry analysis (reference value: 5.57%); type: functional
[9] = tested on: K562; test: Induction of apoptosis in human K562 cells assessed as nuclear fragmentation at 1.5 to 6 nM incubated for 24 hrs by Hoechst 33342 staining based fluorescence microscopic analysis; type: functional, cell-based; settings: dose 1.5-6 nM
[10] = tested on: K562; test: Induction of apoptosis in human K562 cells at 6 nM measured after 48 hrs by Annexin V-FITC/7-AAD staining based flow cytometric analysis relative to control; type: functional
[11] = Metabolic stability in mouse plasma assessed as half life at 1 uM and measured upto 3 hrs by LC-MS/MS analysis; type: ADME, cell-free
[12] = tested on: K562; test: Induction of apoptosis in human K562 cells assessed as increase in bad level at upto 6 nM measured after 48 hrs by Western blot analysis; type: functional, cell-based
[13] = tested on: H22; test: Antitumor activity against mouse H22 cells allografted in mouse model assessed as decrease in MVD cells at 20 mg/kg by immunohistochemistry analysis; type: functional, organism-based
[14] = tested on: MDA-MB-231; test: Inhibition of cell migration in human MDA-MB-231 cells measured after 48 hrs by crystal violet staining microscopy based transwell migration assay; type: functional; settings: dose 1.5-6 nM
[15] = tested on: H22; test: Antitumor activity against mouse H22 cells allografted in mouse model assessed as decrease in Ki67 positive cells at 20 mg/kg by immunohistochemistry analysis; type: functional, organism-based
[16] = tested on: K562; test: Induction of cell cycle arrest in human K562 cells assessed as accumulation of cells at G2/M phase at 3 nM incubated overnight by PI staining based flow cytometry analysis (reference value: 5.57%); type: functional
[17] = tested on: HUVEC; test: Anti-angiogenesis activity in HUVEC cells at 1.5 to 6 nM measured after 24 hrs by wound healing assay; type: functional, cell-based; settings: Homo sapiens, dose 1.5-6 nM
[18] = tested on: H22; test: Antitumor activity against mouse H22 cells allografted in mouse model assessed as inhibition of tumor weight administered as iv dose for once daily for 3 weeks; type: functional, organism-based; settings: dose 10-20 mg/kg
[19] = tested on: HepG2; test: Antiproliferative activity against human HepG2 cells assessed as inhibition of cell growth measured after 72 hrs by MTT assay; type: functional, cell-based; settings: HepG2, 72 h
[20] = tested on: K562; test: Induction of apoptosis in human K562 cells assessed as downregulation of bcl-2 level at upto 6 nM measured after 48 hrs by Western blot analysis; type: functional, cell-based
[21] = tested on: K562; test: Induction of apoptosis in human K562 cells assessed as increase in bax level at upto 6 nM measured after 48 hrs by Western blot analysis; type: functional, cell-based
[22] = target: T1, Tubulin (Homo sapiens) (UniProt P68371+Q9H4B7+P0DPH7+P68366+Q13509+Q71U36+P04350+Q3ZCM7+P07437+P68363+Q9BQE3+Q6PEY2+Q13885+Q9BVA1+Q9BUF5); test: Inhibition of [3H]colchicine binding to tubulin (unknown origin) at 1 uM incubated for 2 hrs by scintillation counter analysis relative to control; type: protein-complex assay
[23] = Aqueous solubility of the compound by HPLC analysis; type: physicochemical; settings: aqueous (not further specified)
[24] = tested on: MDA-MB-231; test: Inhibition of cell invasion in human MDA-MB-231 cells at 1.5 to 6 nM measured after 48 hrs by crystal violet staining microscopy based transwell assay; type: functional; settings: dose 1.5-6 nM
[25] = tested on: K562; test: Induction of cell cycle arrest in human K562 cells assessed as accumulation of cells at G1 phase at 3 nM incubated overnight by PI staining based flow cytometry analysis (reference value: 78.45%); type: functional
[26] = tested on: H22; test: Antitumor activity against mouse H22 cells allografted in mouse model assessed as tumor growth inhibition at 20 mg/kg,iv administered once daily for 3 weeks relative to control; type: functional; settings: H22, 504 h, read-out: TGI
[27] = Metabolic stability in mouse liver microsomes assessed as intrinsic clearance at 100 uM measure upto 60 mins in presence of NADPH by LC-MS/MS analysis; type: ADME, Microsome; settings: 1 h
[28] = tested on: K562; test: Induction of cell cycle arrest in human K562 cells assessed as accumulation of cells at G1 phase at 1.5 nM incubated overnight by PI staining based flow cytometry analysis (reference value: 78.45%); type: functional
[29] = tested on: K562; test: Induction of apoptosis in human K562 cells assessed as chromatin aggregation at 1.5 to 6 nM incubated for 24 hrs by Hoechst 33342 staining based fluorescence microscopic analysis; type: functional, cell-based; settings: dose 1.5-6 nM
[30] = tested on: K562; test: Induction of ROS generation in human K562 cells incubated for 24 hrs by DCFH-DA staining based assay; type: functional, cell-based; settings: dose 1.5-6 nM
[31] = tested on: A549; test: Antiproliferative activity against human A549 cells assessed as inhibition of cell growth measured after 72 hrs by MTT assay; type: functional, cell-based; settings: A549, 72 h
[32] = tested on: K562; test: Induction of apoptosis in human K562 cells at 1.5 nM measured after 48 hrs by Annexin V-FITC/7-AAD staining based flow cytometric analysis relative to control; type: functional
[33] = Toxicity in mouse assessed as effect on heart at 20 mg/kg by H and E staining based microscopic analysis; type: organism-based; settings: in vivo
[34] = tested on: A549; test: Antiproliferative activity against human A549 cells assessed as inhibition of cell growth at 0.01 uM measured after 72 hrs by MTT assay relative to control; type: functional
[35] = target: T1, Tubulin (Homo sapiens); test: Inhibition of [3H]colchicine binding to tubulin (unknown origin) at 5 uM incubated for 2 hrs by scintillation counter analysis relative to control; type: protein-complex assay
[36] = tested on: K562; test: Induction of cell cycle arrest in human K562 cells assessed as accumulation of cells at G2/M phase at 6 nM incubated overnight by PI staining based flow cytometry analysis (reference value: 5.57%); type: functional
[37] = Toxicity in mouse assessed as effect on liver at 20 mg/kg by H and E staining based microscopic analysis; type: organism-based; settings: in vivo
[38] = tested on: A549; test: Antiproliferative activity against human A549 cells assessed as inhibition of cell growth at 0.1 uM measured after 72 hrs by MTT assay relative to control; type: functional
[39] = Antiproliferative activity against human HFL1 cells assessed as inhibition of cell growth measured after 72 hrs by MTT assay; type: toxicity, cell-based
[40] = tested on: H22; test: Antitumor activity against mouse H22 cells allografted in mouse model assessed as inhibition of tumor volume administered as iv dose for once daily for 3 weeks; type: functional, organism-based; settings: dose 10-20 mg/kg

pIC50 [2]: 7.37
half-life at 100 µM [3]: 10.7 min
pIC50 [4]: 8.52
Activity [7]: Dose-Dependent Effect
half-life at 1 µM [11]: > 180 min
pIC50 [19]: 8.05
inhibition [22]: 63.9%
solubility [23]: 6.68 µg/mL (≈ 17.6 µM)
CLH [27]: 129 µL/min/mg
pIC50 [31]: 8.10
inhibition [35]: 75.9%
Compound: CCn1ccc2cc(N3CCC(=O)c4c3cc(OC)c(OC)c4OC)ccc21
Activity [1]: Non-Toxic
Activity [5]: Non-Toxic
Activity [6]: Non-Toxic
Activity [8]: 10.62%
Activity [9]: Active
Activity [10]: 45.82%
Activity [12]: Active
Activity [13]: Active
inhibition [14]: Dose-Dependent Effect
Activity [15]: Active
Activity [16]: 12.33%
Activity [17]: Active
Activity [18]: Dose-Dependent Effect
Activity [20]: Active
Activity [21]: Active
inhibition [24]: Active
Activity [25]: 59.63%
inhibition in vivo at 20 mg/kg [26]: 63.3%
Activity [28]: 66.8%
Activity [29]: Active
Activity [30]: Dose-Dependent Effect
Activity [32]: 11.44%
Activity [33]: Non-Toxic
inhibition at 0.01 µM [34]: 73.6%
Activity [36]: 22%
Activity [37]: Non-Toxic
inhibition at 0.1 µM [38]: 78.3%
IC50 at 72 h [39]: 62 nM
Activity [40]: Dose-Dependent Effect
